In ChEMBL document CHEMBL5649166, “RIP3 induces apoptosis independent of pronecrotic kinase activity” (Mol Cell, 2014):

What was measured:
[1] = molecular target: Vascular endothelial growth factor receptor 1 (Homo sapiens) (UniProt P17948); experiment: Inhibition of human FLT1/VEGFR1 using poly[Glu:Tyr] (4:1) as substrate at 1 uM in presence of 32P-ATP by Hotspot assay relative to control; values are per cent of control
[2] = molecular target: Mitogen-activated protein kinase 11 (Homo sapiens) (UniProt Q15759); experiment: Inhibition of human P38b/MAPK11 using myelin basic protein as substrate at 1 uM in presence of 32P-ATP by Hotspot assay relative to control; values are per cent of control
[3] = molecular target: Protein-tyrosine kinase 6 (Homo sapiens) (UniProt Q13882); experiment: Inhibition of human BRK using poly[Glu:Tyr] (4:1) as substrate at 1 uM in presence of 32P-ATP by Hotspot assay relative to control; values are per cent of control
[4] = molecular target: Cyclin-dependent kinase 5/CDK5 activator 1 (Homo sapiens) (UniProt Q00535+Q15078); experiment: Inhibition of human CDK5/p25 using RB Protein as substrate at 1 uM in presence of 32P-ATP by Hotspot assay relative to control; values are per cent of control
[5] = molecular target: T1, MAP kinase-activated protein kinase 5 (Homo sapiens) (UniProt Q8IW41); experiment: Inhibition of human MAPKAPK5/PRAK using KKLNRTLSVA as substrate at 1 uM in presence of 32P-ATP by Hotspot assay relative to control; values are per cent of control
T1 sequence (whole entry): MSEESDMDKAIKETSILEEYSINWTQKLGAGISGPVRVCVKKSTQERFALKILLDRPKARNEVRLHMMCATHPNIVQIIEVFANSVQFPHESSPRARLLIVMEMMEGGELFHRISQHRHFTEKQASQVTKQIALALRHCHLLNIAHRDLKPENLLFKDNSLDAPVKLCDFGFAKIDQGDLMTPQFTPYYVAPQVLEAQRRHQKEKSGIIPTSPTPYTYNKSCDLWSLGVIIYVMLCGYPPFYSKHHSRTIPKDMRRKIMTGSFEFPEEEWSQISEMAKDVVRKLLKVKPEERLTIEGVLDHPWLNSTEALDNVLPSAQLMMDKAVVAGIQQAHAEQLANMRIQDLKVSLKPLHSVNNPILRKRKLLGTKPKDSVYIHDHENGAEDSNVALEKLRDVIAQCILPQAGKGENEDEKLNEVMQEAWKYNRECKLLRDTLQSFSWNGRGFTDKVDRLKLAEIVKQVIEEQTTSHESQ

[6] = molecular target: T2, Myotonin-protein kinase (Homo sapiens) (UniProt Q09013); experiment: Inhibition of human DMPK using KKRNRRLSVA as substrate at 1 uM in presence of 32P-ATP by Hotspot assay relative to control; values are per cent of control
T2 sequence (whole entry): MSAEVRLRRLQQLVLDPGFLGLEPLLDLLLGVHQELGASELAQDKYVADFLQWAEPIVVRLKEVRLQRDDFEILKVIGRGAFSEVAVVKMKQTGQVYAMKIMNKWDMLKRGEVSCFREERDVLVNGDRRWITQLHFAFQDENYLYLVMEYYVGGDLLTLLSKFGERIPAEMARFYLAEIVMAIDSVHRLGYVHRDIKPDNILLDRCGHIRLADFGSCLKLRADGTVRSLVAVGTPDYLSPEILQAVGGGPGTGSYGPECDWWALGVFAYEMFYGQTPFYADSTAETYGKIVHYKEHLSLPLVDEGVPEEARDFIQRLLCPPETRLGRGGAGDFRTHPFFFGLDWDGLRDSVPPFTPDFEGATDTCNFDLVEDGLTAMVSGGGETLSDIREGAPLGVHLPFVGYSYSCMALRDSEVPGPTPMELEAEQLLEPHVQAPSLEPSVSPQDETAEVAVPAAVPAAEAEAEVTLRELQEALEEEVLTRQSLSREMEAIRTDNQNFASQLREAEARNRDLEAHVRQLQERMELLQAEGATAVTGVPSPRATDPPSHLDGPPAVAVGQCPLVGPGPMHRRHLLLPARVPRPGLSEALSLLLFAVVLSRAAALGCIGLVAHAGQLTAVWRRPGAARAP

[7] = molecular target: CDK9/Cyclin K (Homo sapiens) (UniProt P50750+O75909); experiment: Inhibition of human CDK9/cyclin K using KTFCGTPEYLAPEVRREPRILSEEEQEMFRDFDYIADWC as substrate at 1 uM in presence of 32P-ATP by Hotspot assay relative to control; values are per cent of control
[8] = molecular target: T3, cGMP-dependent protein kinase 1 (Homo sapiens) (UniProt Q13976); experiment: Inhibition of human PKG1b using LRRASLG as substrate at 1 uM in presence of 32P-ATP by Hotspot assay relative to control; values are per cent of control
T3 sequence (whole entry): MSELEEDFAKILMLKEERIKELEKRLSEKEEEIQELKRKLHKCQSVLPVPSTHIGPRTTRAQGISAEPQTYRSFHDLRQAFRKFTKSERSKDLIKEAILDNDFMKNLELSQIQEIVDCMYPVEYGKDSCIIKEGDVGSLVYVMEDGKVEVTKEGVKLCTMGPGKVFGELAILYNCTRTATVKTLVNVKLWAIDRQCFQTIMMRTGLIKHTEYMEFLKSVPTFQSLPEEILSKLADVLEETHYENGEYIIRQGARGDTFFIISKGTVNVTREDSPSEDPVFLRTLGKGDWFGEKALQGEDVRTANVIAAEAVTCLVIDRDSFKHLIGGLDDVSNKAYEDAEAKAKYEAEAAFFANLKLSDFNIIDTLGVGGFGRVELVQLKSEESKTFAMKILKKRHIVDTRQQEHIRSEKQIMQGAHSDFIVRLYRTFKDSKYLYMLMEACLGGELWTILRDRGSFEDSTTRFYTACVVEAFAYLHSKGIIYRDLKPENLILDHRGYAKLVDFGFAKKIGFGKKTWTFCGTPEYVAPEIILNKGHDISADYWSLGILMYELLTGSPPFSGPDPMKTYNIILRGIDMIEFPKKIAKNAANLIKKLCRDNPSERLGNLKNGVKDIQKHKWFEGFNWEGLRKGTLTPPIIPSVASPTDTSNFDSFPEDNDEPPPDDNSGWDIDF

Mitogen-activated protein kinase 11 (Homo sapiens), sequence (Q15759 whole entry): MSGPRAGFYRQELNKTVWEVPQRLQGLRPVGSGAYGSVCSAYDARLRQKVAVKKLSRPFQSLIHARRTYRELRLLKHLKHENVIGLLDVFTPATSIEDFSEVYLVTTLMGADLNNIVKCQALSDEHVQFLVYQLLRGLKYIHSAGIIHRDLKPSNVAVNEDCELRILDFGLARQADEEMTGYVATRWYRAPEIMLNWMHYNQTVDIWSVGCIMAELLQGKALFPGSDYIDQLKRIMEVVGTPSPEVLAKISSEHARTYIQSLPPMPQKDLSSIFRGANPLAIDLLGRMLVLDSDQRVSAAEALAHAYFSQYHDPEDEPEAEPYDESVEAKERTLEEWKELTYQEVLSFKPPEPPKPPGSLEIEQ
Vascular endothelial growth factor receptor 1 (Homo sapiens), sequence (P17948 whole entry): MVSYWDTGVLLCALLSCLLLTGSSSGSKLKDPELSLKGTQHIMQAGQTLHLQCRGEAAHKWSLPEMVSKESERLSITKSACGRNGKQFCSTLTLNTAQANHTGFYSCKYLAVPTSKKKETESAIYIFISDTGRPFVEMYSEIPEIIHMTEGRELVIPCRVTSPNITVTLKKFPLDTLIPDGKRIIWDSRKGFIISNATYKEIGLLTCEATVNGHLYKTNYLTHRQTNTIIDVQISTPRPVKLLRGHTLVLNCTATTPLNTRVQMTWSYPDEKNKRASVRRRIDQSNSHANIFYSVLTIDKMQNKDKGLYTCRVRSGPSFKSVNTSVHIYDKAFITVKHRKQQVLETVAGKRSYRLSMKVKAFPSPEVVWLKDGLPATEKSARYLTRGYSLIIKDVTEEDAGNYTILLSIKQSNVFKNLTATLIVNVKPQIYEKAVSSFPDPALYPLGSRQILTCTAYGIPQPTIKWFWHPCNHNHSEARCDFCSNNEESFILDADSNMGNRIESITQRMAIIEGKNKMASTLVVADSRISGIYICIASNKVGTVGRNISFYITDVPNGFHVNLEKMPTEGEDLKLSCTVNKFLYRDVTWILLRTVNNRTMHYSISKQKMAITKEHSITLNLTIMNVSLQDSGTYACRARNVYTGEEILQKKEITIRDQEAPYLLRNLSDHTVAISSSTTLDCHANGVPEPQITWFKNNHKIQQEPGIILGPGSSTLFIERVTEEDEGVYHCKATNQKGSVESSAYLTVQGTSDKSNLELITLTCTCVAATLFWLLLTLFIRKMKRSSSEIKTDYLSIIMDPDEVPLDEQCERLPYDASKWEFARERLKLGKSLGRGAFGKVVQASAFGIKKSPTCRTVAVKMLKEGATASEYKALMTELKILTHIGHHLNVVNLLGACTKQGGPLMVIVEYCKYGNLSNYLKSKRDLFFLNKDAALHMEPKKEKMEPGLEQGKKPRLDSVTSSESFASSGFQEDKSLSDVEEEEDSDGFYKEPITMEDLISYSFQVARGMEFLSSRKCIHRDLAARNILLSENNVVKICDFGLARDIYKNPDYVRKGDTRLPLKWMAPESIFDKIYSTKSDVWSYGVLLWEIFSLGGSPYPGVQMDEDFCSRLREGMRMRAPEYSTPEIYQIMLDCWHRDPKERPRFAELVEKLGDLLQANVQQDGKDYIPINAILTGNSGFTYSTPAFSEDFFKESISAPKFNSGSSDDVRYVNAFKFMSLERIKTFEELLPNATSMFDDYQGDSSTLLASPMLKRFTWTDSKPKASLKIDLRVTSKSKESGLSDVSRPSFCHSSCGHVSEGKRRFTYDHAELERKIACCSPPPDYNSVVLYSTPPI
Cyclin-dependent kinase 5/CDK5 activator 1 (Homo sapiens), sequence (Q00535 whole entry): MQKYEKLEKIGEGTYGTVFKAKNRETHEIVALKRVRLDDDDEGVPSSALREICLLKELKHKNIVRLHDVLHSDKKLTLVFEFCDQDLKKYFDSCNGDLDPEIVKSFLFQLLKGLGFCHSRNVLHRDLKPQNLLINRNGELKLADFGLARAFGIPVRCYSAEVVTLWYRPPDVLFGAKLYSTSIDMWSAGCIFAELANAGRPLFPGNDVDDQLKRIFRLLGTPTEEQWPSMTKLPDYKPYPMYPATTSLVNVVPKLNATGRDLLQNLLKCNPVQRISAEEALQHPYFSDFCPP
Cyclin-dependent kinase 5/CDK5 activator 1 (Homo sapiens), sequence (Q15078 99-307 partner limits assumed): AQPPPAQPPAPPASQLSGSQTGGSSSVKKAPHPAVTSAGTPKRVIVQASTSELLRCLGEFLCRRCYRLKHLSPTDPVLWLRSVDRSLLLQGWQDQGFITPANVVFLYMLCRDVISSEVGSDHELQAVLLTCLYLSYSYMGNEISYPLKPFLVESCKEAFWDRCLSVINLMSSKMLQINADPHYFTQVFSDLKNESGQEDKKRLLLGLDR
Protein-tyrosine kinase 6 (Homo sapiens), sequence (Q13882 whole entry, looked up): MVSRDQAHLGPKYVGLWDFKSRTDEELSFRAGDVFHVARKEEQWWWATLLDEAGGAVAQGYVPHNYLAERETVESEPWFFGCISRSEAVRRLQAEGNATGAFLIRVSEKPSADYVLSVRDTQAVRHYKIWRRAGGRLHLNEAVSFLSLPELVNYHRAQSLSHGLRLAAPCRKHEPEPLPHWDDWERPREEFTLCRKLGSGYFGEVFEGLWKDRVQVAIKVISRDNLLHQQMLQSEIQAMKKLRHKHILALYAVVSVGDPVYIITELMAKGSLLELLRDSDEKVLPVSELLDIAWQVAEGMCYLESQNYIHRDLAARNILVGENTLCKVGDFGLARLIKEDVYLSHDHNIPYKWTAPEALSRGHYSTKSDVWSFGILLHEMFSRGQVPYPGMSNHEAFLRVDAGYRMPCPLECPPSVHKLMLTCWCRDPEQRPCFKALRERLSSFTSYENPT

SMILES: CNC(=O)c1ccc2c(c1)ncn2-c1ccc(CC(=O)OC(C)(C)C)cc1
- residual activity [1]: 72.5%
- residual activity [2]: 97.1%
- residual activity [3]: 29.9%
- residual activity [4]: 93.1%
- residual activity [5]: 103%
- residual activity [6]: 107%
- residual activity [7]: 99.6%
- residual activity [8]: 96.1%

SMILES: Cc1cc(-c2cnc(N)c3c(-c4ccc5scnc5c4)csc23)n(C)n1
- residual activity [1]: 96.8%
- residual activity [2]: 37.8%
- residual activity [3]: 8.67%
- residual activity [4]: 96.7%
- residual activity [5]: 90.5%
- residual activity [6]: 92.1%
- residual activity [7]: 104%
- residual activity [8]: 85%

SMILES: CC(C)S(=O)(=O)c1ccc2nccc(Nc3ccc4scnc4c3)c2c1
- residual activity [1]: 85%
- residual activity [2]: 102%
- residual activity [3]: 10.8%
- residual activity [4]: 99.9%
- residual activity [5]: 102%
- residual activity [6]: 103%
- residual activity [7]: 94.5%
- residual activity [8]: 97.5%
